Experimental findings from ChEMBL document CHEMBL1201862, “PubChem BioAssay data set” (2004) are described below.

SMILES strings stand for the structures.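 How tested: cells in 96-well plates exposed to compound for 48 hours at five concentrations. GI50 is the concentration that inhibits growth by half.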 The source made the active and inactive calls. Cut-off read from the data, not from the text of the source: active = GI50 up to about 1.1 µM and inactive = higher.

Test in all cases: inhibition of tumour cell growth, NCI panel, 48 h
Assay [1] has as its system ACHN.
Assay [2] has as its system LOX IMVI.
The test system of assay [3] is SK-MEL-28.
Assay [4] relates to K562.
For assay [5], the system named is SNB-19.
Assay [6] relates to Malme-3M.
Assay [7] deals with CCRF-CEM.
For assay [8], the system named is OVCAR-8.
Assay [9] has as its system EKVX.
Assay [10] concerns OVCAR-4.
Assay [11] concerns SF-539.
Assay [12] deals with HL-60.
Assay [13] deals with UO-31.
In assay [14] the test system is RPMI-8226.
Assay [15] relates to MOLT-4.
Assay [16] relates to HT-29.
Assay [17] deals with SW-620.
In assay [18] the test system is RXF 393.
For assay [19], the system named is HCT-116.
For assay [20], the system named is IGROV-1.

Consider `c1ccc(NN/N=N/c2ccc(-c3nc4ccccc4[nH]3)cc2)cc1`, for which the GI50 was 25.8 µM (inactive) in assay [1]; 15.2 µM (inactive) in [2]; 35.8 µM (inactive) in [3]; 8.43 µM (inactive) in [4]; > 100 µM (inactive) in assay [5]; 28.7 µM (inactive) in assay [6]. The GI50 in [7] was 20.7 µM (inactive); in [8], 36 µM (inactive); in [9], 39.4 µM (inactive); in [10] it was 23.4 µM (inactive); in [11], 77.6 µM (inactive); in [12], 22 µM (inactive). In addition, the GI50 is 34.5 µM (inactive) in assay [13]; 14.2 µM (inactive) in [14]; 14.5 µM (inactive) in assay [15]; 25 µM (inactive) in assay [16]; 52.4 µM (inactive) in [17]; 21.3 µM (inactive) in assay [18]. Besides, the values for the GI50 in [19] and in [20] were 28 µM (inactive) and 27.8 µM (inactive), respectively.

As for `c1ccc(CSC2(SCc3ccccc3)CCCC2)cc1`, the GI50 in assay [1], in assay [2], in assay [3], in assay [4], in assay [5] and in assay [6] was > 10 µM (inactive) each time. For the same molecule, the GI50 in assay [7], in assay [8], in assay [9], in [10], in assay [11] and in assay [12] was > 10 µM (inactive) in each case. Further, the GI50 in assay [13], in [14], in [15], in assay [16], in assay [17] and in assay [18] was > 10 µM (inactive) each time. Further, the GI50 in assay [19] and in [20] was > 10 µM (inactive) in each case.

On to `O=c1[nH]c(=O)n(C2CC(O)C(CO)O2)cc1C(OCC(F)(F)F)OCC(F)(F)F` (stereo unspecified), for which the GI50 in assay [1] is > 100 µM (inactive); in assay [2] it was > 100 µM (inactive); in [3] it was > 100 µM (inactive); in [4] it was 53.3 µM (inactive); in assay [5], > 100 µM (inactive); in assay [6], > 100 µM (inactive). In addition, the GI50 in [7] is 70.8 µM (inactive); in assay [8], > 100 µM (inactive); in assay [9], > 100 µM (inactive); in assay [10], > 100 µM (inactive); in assay [11], > 100 µM (inactive); in assay [12] it was > 100 µM (inactive). Further, the GI50 in assay [13], in assay [14], in [15], in assay [16], in [17] and in assay [18] was > 100 µM (inactive) each time. Besides, the GI50 in assay [20] is > 100 µM (inactive).

In the case of `CC1(C)CC(=O)C2=C(C1)OC1=C(CC(C)(C)CC1=O)C2c1ccccc1[N+](=O)[O-]` (stereo unspecified), the GI50 in assay [1], in [2], in assay [3], in assay [4], in assay [5] and in assay [6] was > 100 µM (inactive) each time. Also, the GI50 in assay [7] is > 100 µM (inactive); in [9] it was > 100 µM (inactive); in assay [10], > 100 µM (inactive); in assay [11] it was > 100 µM (inactive); in assay [12], > 100 µM (inactive); in [13] it was 2 µM (inactive). Further, the GI50 in [14], in assay [15], in assay [16], in assay [17], in [18] and in assay [19] was > 100 µM (inactive) throughout. Further, the GI50 in assay [20] was > 100 µM (inactive).

Consider `C[N+](C)([O-])CCOc1cc2c(c3ccccc13)-c1ccccc1C2=O`, for which the GI50 in assay [2] was 4.31 µM (inactive); in assay [3], 18.3 µM (inactive); in [4], 15.8 µM (inactive); in assay [5] it was 13.6 µM (inactive); in assay [6], 14 µM (inactive); in assay [7], 8.2 µM (inactive). For the same molecule, the GI50 in [8] was 6.27 µM (inactive); in assay [9], 25.9 µM (inactive); in assay [10], 3.92 µM (inactive); in assay [11], 15.1 µM (inactive); in assay [12] it was 14.3 µM (inactive); in [13] it was 17.8 µM (inactive). Also, the GI50 in [14] was 12.3 µM (inactive); in [15], 3.46 µM (inactive); in assay [16], 7.46 µM (inactive); in assay [17], 12.3 µM (inactive); in assay [18], 17.7 µM (inactive); in [19] it was 6.25 µM (inactive). Besides, the GI50 in [20] was 19.1 µM (inactive).

In the case of `COc1nc(SC)nc2c1cnn2C1OC(C(O)CO)C(OC)C1O` (stereo unspecified), the GI50 was > 100 µM (inactive) in assay [2]; > 100 µM (inactive) in assay [3]; > 100 µM (inactive) in assay [4]; > 100 µM (inactive) in assay [5]; > 100 µM (inactive) in assay [6]; 58.7 µM (inactive) in [7]. Besides, the GI50 is > 100 µM (inactive) in [8]; > 100 µM (inactive) in assay [9]; 69.3 µM (inactive) in assay [10]; > 100 µM (inactive) in assay [11]; 52.7 µM (inactive) in assay [12]; 34.9 µM (inactive) in assay [13]. In addition, the GI50 was 63.8 µM (inactive) in assay [14]; 14 µM (inactive) in assay [15]; 52.4 µM (inactive) in assay [16]; > 100 µM (inactive) in [17]; > 83.2 µM (inactive) in assay [18]; 78.2 µM (inactive) in assay [19]. In addition, the GI50 in assay [20] was > 100 µM (inactive).

Regarding `O=[N+]([O-])c1ccc2[nH]c3c(-c4ccccc4)nccc3c2c1`, the GI50 was 16.9 µM (inactive) in assay [2]; 29.2 µM (inactive) in assay [3]; 1.71 µM (inactive) in assay [4]; 15.3 µM (inactive) in assay [5]; 18.9 µM (inactive) in [6]; 4.09 µM (inactive) in assay [7]. Further, the GI50 is 22 µM (inactive) in [8]; 21.1 µM (inactive) in assay [9]; 10.5 µM (inactive) in [10]; 63 µM (inactive) in assay [11]; 6 µM (inactive) in assay [12]; 4.41 µM (inactive) in assay [13]. Also, the GI50 was 0.796 µM (active) in assay [14]; 2.31 µM (inactive) in assay [15]; 10.7 µM (inactive) in [16]; 36 µM (inactive) in assay [17]; 25.4 µM (inactive) in assay [18]; 17.1 µM (inactive) in assay [19]. In addition, the GI50 in assay [20] is 7.03 µM (inactive).

`COC(=O)c1cn(CC(O)CCl)nn1` (stereo unspecified): the GI50 in [1], in assay [2], in assay [3], in [4], in assay [5] and in assay [6] was > 100 µM (inactive) in each case. The GI50 was > 100 µM (inactive) in assay [7]; > 100 µM (inactive) in assay [8]; > 100 µM (inactive) in assay [9]; > 100 µM (inactive) in [10]; > 100 µM (inactive) in assay [11]; > 10 µM (inactive) in assay [12]. Further, the GI50 in assay [13], in [14], in assay [15], in [16], in assay [17] and in assay [18] was > 100 µM (inactive) each time. For the same molecule, in assay [20], the GI50 was > 100 µM (inactive).

On to `CC(=O)OCC1OC(n2c3c(c(-c4ccco4)c(C#N)c2=S)CCC3)C(OC(C)=O)C(OC(C)=O)C1OC(C)=O` (stereo unspecified), for which the GI50 in assay [1] is > 100 µM (inactive); in assay [2], 60.1 µM (inactive); in assay [3], > 100 µM (inactive); in assay [4], 21.9 µM (inactive); in [5] it was > 100 µM (inactive); in [6], > 100 µM (inactive). The GI50 is 8.09 µM (inactive) in assay [7]; 56.8 µM (inactive) in [10]; > 100 µM (inactive) in assay [11]; 82.8 µM (inactive) in assay [12]; 80.7 µM (inactive) in [13]; 28.1 µM (inactive) in assay [14]. In addition, the GI50 in assay [15] was 4.42 µM (inactive); in assay [16] it was > 100 µM (inactive); in assay [17] it was 55.8 µM (inactive); in assay [18] it was 20.2 µM (inactive); in assay [19], > 100 µM (inactive); in assay [20] it was 69.3 µM (inactive).

Regarding `O=C(NN1C(=O)CS(=O)(=O)C1c1ccc(Cl)c(Cl)c1)c1ccncc1` (stereo unspecified), the GI50 is > 95.9 µM (inactive) in [2]; > 100 µM (inactive) in [3]; > 54.2 µM (inactive) in assay [4]; > 92.3 µM (inactive) in assay [5]; > 100 µM (inactive) in [6]; 42.1 µM (inactive) in [7]. Besides, the GI50 is > 100 µM (inactive) in assay [8]; > 74 µM (inactive) in assay [9]; > 100 µM (inactive) in assay [10]; > 100 µM (inactive) in [11]; > 43 µM (inactive) in assay [12]; > 100 µM (inactive) in [13]. Also, the GI50 is > 41.7 µM (inactive) in [14]; > 40.3 µM (inactive) in assay [15]; > 71.3 µM (inactive) in [16]; > 100 µM (inactive) in assay [17]; > 69 µM (inactive) in assay [18]; > 87.7 µM (inactive) in assay [19]. For the same molecule, the GI50 in [20] is > 100 µM (inactive).
